From KR20210134284A, “분갈 추출물 또는 이로부터 유래된 화합물을 포함하는 피부 개선용 조성물” (주식회사 엘지생활건강, priority 2018, dated 2020)

What was measured:
[1] = Anti-glycation activity using L-arginine and glucose; details: 70℃, 4 h, 420 nm
[2] = tested on: RAW264.7 cells, NO production (생쥐의 대식세포인 RAW264.7 세포); assay: NO production inhibition by GRIESS method in LPS-stimulated RAW264.7 cells (anti-inflammatory); assay type: cell-based; details: Mus musculus, LPS 1 μg, 24 h, read-out: NO production inhibition rate
[3] = DPPH free radical scavenging (antioxidant); details: 37℃, 30 min, 520 nm, concentration removing 50% of free radicals
[4] = tested on: type Ⅰ collagen synthesis in human-derived fibroblasts (제1형 콜라겐; 인간 유래 섬유 아세포); assay: Type I collagen synthesis promotion in human fibroblasts (PICP EIA kit); assay type: cell-based; details: 48 h; for type I collagen production amount: negative control 150.2 ng/ml
[5] = tested on: B-16 mouse melanoma cell (쥐의 멜라노마 세포); assay: Melanin production inhibition (whitening), absorbance at 400 nm; assay type: cell-based; details: 72 h, 3 days, relative to control, read-out: total melanin inhibition rate
[6] = Homo sapiens, Fibroblast, 10 ppm, relative to control, read-out: collagen production increase rate

| IC50 [3] | Compound | inhibition at 10 ppm [5] | type I collagen production amount ([4]; 10 ppm) | activation at 10 ppm [4, 6] | glycation inhibition rate ([1]; 10 ppm) | other results |
| --- | --- | --- | --- | --- | --- | --- |
| – | N=C(N)NN [Aminoguanidine, reference compound] | – | – | – | – | glycation inhibition rate ([1]; 55 ppm): 48.12% |
| – | CNC(=N)NCCC[C@H](N)C(=O)O [L-NMMA, L-NG-monomethylarginine, reference compound] | – | – | – | – | inhibition at 10 ppm [2]: 30.6% |
| – | OC[C@H]1O[C@@H](Oc2ccc(O)cc2)[C@H](O)[C@@H](O)[C@@H]1O [알부틴, arbutin, reference compound] | – | – | – | – | inhibition at 100 ppm ([5]; 100 ppm): 47.8% |
| 0.0015 %w/v | COc1c(O[C@@H]2O[C@H](CO[C@@H]3OC[C@@H](O)[C@H](O)[C@H]3O)[C@@H](O)[C@H](O)[C@H]2O)cc2occ(-c3ccc(O)cc3)c(=O)c2c1O [화합물 1, tectorigenin 7-O-xylosylglucoside] | 48.3% | 202.3 ng/mL | 34.7% | 41.67% | inhibition at 100 ppm [2]: 99.5% |
| 0.0024 %w/v | COc1c(O[C@@H]2O[C@H](CO)[C@@H](O)[C@H](O)[C@H]2O)cc2occ(-c3ccc(O)cc3)c(=O)c2c1O [화합물 2, tectoridin] | 63.1% | 221.9 ng/mL | 47.7% | 38.95% | inhibition at 100 ppm [2]: 99.5% |
| 0.0012 %w/v | COc1c(O)cc2occ(-c3ccc(O)cc3)c(=O)c2c1O [화합물 3, tectorigenin] | 32.7% | 208.1 ng/mL | 38.5% | 34.75% | inhibition at 10 ppm [2]: 51.9% |

| Compound | IC50 [3] | inhibition at 10 ppm [5] | type I collagen production amount ([4]; 10 ppm) | activation at 10 ppm [4, 6] | glycation inhibition rate ([1]; 10 ppm) | other results |
| --- | --- | --- | --- | --- | --- | --- |
| O=C1O[C@H]([C@@H](O)CO)C(O)=C1O [비타민C, reference compound] | 0.0005 %w/v | – | – | – | – | type I collagen production amount ([4]; 50 ppm): 210.9 ng/mL; activation at 50 ppm ([4]; Homo sapiens, Fibroblast, 50 ppm, relative to control, read-out: collagen production increase rate): 40.4% |
